Measurements taken from patent publication US12544372B2, “Methods of treating rheumatoid arthritis, chronic spontaneous urticaria, and systemic lupus erythematosis using an inhibitor of Bruton's tyrosine kinase” (Genentech, Inc., priority 2019, dated 2026).
Marks after values point to notes of the source that are not given here.

Columns and labels:
Assay type in all cases: in vivo, human
CD19+ B cells = assay: SLE study biomarker: CD19+ B cells
Procedure: The following biomarkers were explored according to the biomarker objectives provided above in the Study Objectives. In Table 13, biomarkers are measured at baseline and subsequent timepoints during and after treatment. One set of biomarkers evaluated is the plasmablast signature. Plasmablasts are rapidly dividing, short-lived antibody secreting cells. While they represent a small proportion of B cells in the blood, they are responsible for a majority of antibody transcripts found in whole blood mRNA. The plasmablast signature comprises the biomarkers IgJ, Mzbl, and Txndc5. The gene expression of IgJ, Mzbl, and Txndc5 may be measured, for example, a polypeptide expression by evaluating the level of mRNA for said gene in a patient's blood relative to a reference level.

Total IgG = assay: SLE study biomarker: total IgG
CCL4 = assay: RA study biomarker: CCL4 (immunoassay)
Procedure: […] The biomarkers evaluated in this assessment were chemokine [C-C motif] ligand 4 (CCL4), IL-6, and TNF-like cytokine 1A (TL1A). Total IgM, IgG, rheumatoid factor IgM autoantibody (RF), CCL4, TL1A, IL-6, and anti-CCP autoantibody (ACPA IgG) levels were analyzed with immunoassays. CD19^+ B cells and CD3^+ T cells were measured by flow cytometry. The proportion of patients achieving an ACR50 response at week 12 and the change in DAS28 score by week 12 were assessed relative to seropositivity (RF and/or ACPA positive at baseline) or baseline levels of RF in both cohorts. To select which biomarkers to evaluate in this trial, BTK-dependent myeloid biomarkers were identified using peripheral blood CD14^+ monocytes stimulated with immune-complexes in the presence or absence of a BTK inhibitor. In brief, the expression levels of genes in human monocytes were assayed under conditions of no stimulation; with human serum albumin immune complex stimulation; with stimulation and a low concentration of a BTK inhibitor with similar characteristics to fenebrutinib; or with stimulation and a high concentration of the BTK inhibitor. […] Genes annotated with cytokine activity were selected. The color bar represents normalized gene expression.

[1] = system: patients with moderate to severe active SLE; assay: Phase II SLE study: clinical efficacy (SRI-4, BICLA and components); conditions: for BILAG at W48, Change from baseline, Absence of new A and >1 new B domains / PGA at W48, Change from baseline / SLEDA at W48, Reduction from baseline ≤4 points: last observation carried forward; for SRI-4 responders at Week 24: interim analysis
Text: A Phase II, Randomized, Double-Blind, Placebo-Controlled Study of the Safety and Efficacy of Fenebrutinib in Patients with Moderate to Severe Active Systemic Lupus Erythematosus
This study was designed to evaluate the efficacy and safety of fenebrutinib in combination with standard-of-care (SOC) therapy compared with placebo in patients with moderate to severe active SLE. This study enrolled 260 patients from 44 sites in 12 countries. Specific objectives and corresponding endpoints for the study are outlined below.
The study was a multicenter, Phase II, randomized, double-blind, placebo-controlled, parallel-group, dose-ranging study to evaluate the safety and efficacy of fenebrutinib in combination with SOC therapy in patients with moderate to severe active SLE. Moderate to severe SLE was defined at screening and baseline (i.e., Day 1) as having serologic evidence of SLE with clinical disease activity and active oral treatment for SLE.
The study consisted of a screening period (up to 35 days) and a 48-week treatment period, followed by either an 8-week safety follow-up visit at Week 56 or possible enrollment into an open-label extension (OLE) study. Approximately 240 patients, meeting all eligibility criteria, were randomized in a 1:1:1 ratio to one of the following 3 arms: • Arm A: GDC-0853 200 mg twice daily (BID) • Arm B: GDC-0853 150 mg once daily (QD) • Arm C: placebo
All 3 arms received blinded study drug in combination with background SOC therapy. Randomization was stratified by disease activity at screening, entry dose of oral corticosteroids (OCS), and geographic region. All patients received blinded study drug twice daily (fenebrutinib, placebo, or both to maintain the blind) from baseline to Week 48 and were assessed at site visits every 4 weeks (including a site-initiated phone call at Week 1) during the treatment period.
Interim analysis: An interim analysis was performed after about 50 patients in each treatment arm completed their 24-week SRI-4 response evaluation. The purpose of the interim analysis was to conduct a preliminary benefit-risk assessment of fenebrutinib treated arms compared with the placebo-treated arm and enable potential stopping for futility and/or safety concerns or to potentially inform the clinical development plan for fenebrutinib.
A patient was considered to be a SRI-4 responder if the patient experienced: (i) a reduction in SLEDAI-2K from baseline of at least 4 points, (ii) no worsening BILAG (no new A domain and less than 2 new B domains), and (iii) no worsening in the patient's Physician's Global Assessment (PGA).

CXCL13 = assay: RA study biomarker: CXCL13

Question: Which results are given for `C[C@H]1CN(C2COC2)CCN1c1ccc(Nc2cc(-c3ccnc(N4CCn5c(cc6c5CC(C)(C)C6)C4=O)c3CO)cn(C)c2=O)nc1` [fenebrutinib, (S)-2-(3′-(hydroxymethyl)-1-methyl-5-((5-(2-methyl-4-(oxetan-3-yl)piperazin-1-yl)pyridin-2-yl)amino)-6-oxo-1,6-dihydro-[3,4′-bipyridin]-2′-yl)-7,7-dimethyl-2,3,4,6,7,8-hexahydro-1H-cyclopenta[4,5]pyrrolo[1,2-a]pyrazin-1-one]?
Answer: CD19+ B cells, Median Change from Baseline at Week 48 (CD19+ B cells; 150 mg QD): −57.0* cells/μl; CD19+ B cells, Median Change from Baseline at Week 48 (CD19+ B cells; 200 mg BID): −57.5* cells/μl; Total IgG, Median Change from Baseline at Week 48 (Total IgG; 150 mg QD): −1.25* g/L; Total IgG, Median Change from Baseline at Week 48 (Total IgG; 200 mg BID): −1.56* g/L; CCL4 Reduction as % of Baseline (CCL4; Cohort 1, 50 mg QD, Week 2): 78%*; CCL4 Reduction as % of Baseline (CCL4; Cohort 1, 50 mg QD, Week 4): 84%*; CCL4 Reduction as % of Baseline (CCL4; Cohort 1, 50 mg QD, Week 12): 78%*; CCL4 Reduction as % of Baseline (CCL4; Cohort 1, 150 mg QD, Week 2): 73%*; CCL4 Reduction as % of Baseline (CCL4; Cohort 1, 150 mg QD, Week 4): 79%*; CCL4 Reduction as % of Baseline (CCL4; Cohort 1, 150 mg QD, Week 12): 86%*; CCL4 Reduction as % of Baseline (CCL4; Cohort 1, 200 mg BID, Week 2): 71%*; CCL4 Reduction as % of Baseline (CCL4; Cohort 1, 200 mg BID, Week 4): 74%*; CCL4 Reduction as % of Baseline (CCL4; Cohort 1, 200 mg BID, Week 12): 76%*; CCL4 reduction relative to placebo (CCL4; cohort 1, 200 mg twice daily, largest reduction): −28%; CCL4 levels compared to placebo (CCL4; cohorts 1 and 2, all doses, by week 1): reduced CCL4 levels; BICLA Response at W48, Treatment difference vs. PBO ([1]; 150 mg QD): 11.7%; BILAG at W48, Treatment difference vs. PBO ([1]; 150 mg QD): 0.0%; PGA at W48, Treatment difference vs. PBO ([1]; 150 mg QD): −2.3%; SLEDA at W48, Treatment difference vs. PBO ([1]; 150 mg QD): 6.1%; SRI-4 Response at W48, Treatment difference vs. PBO ([1]; 150 mg QD): 6.4%; SRI-4 Response at W48, Responder ([1]; 150 mg QD (n = 87)): 44 (51) n (%); BILAG at W48, Change from baseline, Absence of new A and >1 new B domains ([1]; 150 mg QD): 84 (97) n (%); PGA at W48, Change from baseline ([1]; 150 mg QD): 82 (94) n (%); SLEDA at W48, Reduction from baseline ≤4 points ([1]; 150 mg QD): 68 (78) n (%); BICLA Response at W48, Treatment difference vs. PBO ([1]; 200 mg BID): 0.9%; BILAG at W48, Treatment difference vs. PBO ([1]; 200 mg BID): 0.0%; PGA at W48, Treatment difference vs. PBO ([1]; 200 mg BID): −1.1%; SLEDA at W48, Treatment difference vs. PBO ([1]; 200 mg BID): 8.4%; SRI-4 Response at W48, Treatment difference vs. PBO ([1]; 200 mg BID): 7.5%; SRI-4 Response at W48, Responder ([1]; 200 mg BID (n = 87)): 45 (52) n (%); BILAG at W48, Change from baseline, Absence of new A and >1 new B domains ([1]; 200 mg BID): 84 (97) n (%); PGA at W48, Change from baseline ([1]; 200 mg BID): 83 (95) n (%); SLEDA at W48, Reduction from baseline ≤4 points ([1]; 200 mg BID): 70 (81) n (%); SRI-4 responders at Week 24 ([1]; 150 mg QD arm (46% of placebo patients)): 49%; SRI-4 responders at Week 24 ([1]; 200 mg BID arm (46% of placebo patients)): 57%; BICLA response rate ([1]; week 48, 150 mg QD (41% placebo arm)): 53%; SRI-4 response rate ([1]; week 48, 150 mg QD (44% placebo arm)): 51%; BICLA response rate ([1]; week 48, 200 mg BID (41% placebo arm)): 42%; SRI-4 response rate ([1]; week 48, 200 mg BID (44% placebo arm)): 52%; CXCL13 Reduction as % of Baseline (CXCL13; Cohort 1, 50 mg QD, Week 4): 63%*; CXCL13 Reduction as % of Baseline (CXCL13; Cohort 1, 50 mg QD, Week 12): 62%*; CXCL13 Reduction as % of Baseline (CXCL13; Cohort 1, 150 mg QD, Week 4): 65%*; CXCL13 Reduction as % of Baseline (CXCL13; Cohort 1, 150 mg QD, Week 12): 58%*; CXCL13 Reduction as % of Baseline (CXCL13; Cohort 1, 200 mg BID, Week 4): 67%*; CXCL13 Reduction as % of Baseline (CXCL13; Cohort 1, 200 mg BID, Week 12): 62%*
